# Laboratory results taken from patent US20010006646A1, “METHOD AND SYSTEM FOR TREATMENT OF WOUNDS” (priority 1996, published 2001).
# Columns and labels:
# [1] = tested on: 18 month old chronic bed sore on the middle of their back; experiment: Example 2: old chronic back wound (bed sore), treatment of a human patient; assay type: in vivo; settings: dressings in conjunction with two serial courses of antibiotics (per orum Cipro 500 mg B.I.D., then 500 mg intravenous Keflex every eight hours)
# Description: The chemical debriding complex applied to each of the wounds treated in examples 2 through 4 was an aerosolized liquid composition comprising:
# (§1) The formulation of the present invention used in the following examples was prepared in the form of a gel as follows:
# (§2) (4) 1 ml of mixture (a), 1 ml of mixture (b) and 1 ml of mixture (c) were combined using a three step homogenization process to form the gel formulation of the present invention used in the following examples, namely
# (§3) The dose of formulation used in treating the wounds in the following examples was based on the wound volume. The wound volume was measured in cubic centimeters using well known methods.
# (§4) The wound was subsequently treated using the gel formulation prepared as described above. Specifically, the given formulation was administered to the patient's wound as part of the following treatment procedure. Particularly, (i) the wound was prepared for administration of the given formulation by liberal application of a chemical debriding complex described above; (ii) after allowing the chemical debriding complex to bubble off, about three (3) minutes, a medicated pad comprising a sterile pad containing about three (3) ml of the gel formulation for each cubic centimeter of wound volume was placed over the wound and secured to the patient; (iii) the medicated pad was removed about twenty-four (24) hours later; (iv) steps (i) through (iii) were repeated. After seven (7) days of treatment, the wound was completely closed.
# A human patient in very poor health suffering from CHF, diabetes, peripheral vascular disease, 10% body surface non-candidyal yeast infection, nutritional deficit, and “steroid” skin secondary to prednisone administration for auto-immune arthritis and from an 18 month old chronic bed sore on the middle of their back. Conventional treatments, including granulex, zinc oxide, duoderm and sorbasan dressings in conjunction with two serial courses of oral antibiotics, per orum Cipro 500 mg B.I.D. followed by 500 mg intravenous Keflex every eight hours, were unsuccessful at stimulating the healing of the wound. […]
# [2] = tested on: 16 month old chronic interstitial, encapsulated, alpha-hemolytic, streptococcal channelling ulceration located on their right ankle; experiment: Example 1: old chronic ankle wound, treatment of a human patient; assay type: in vivo; settings: for outcome of conventional per orum treatments / outcome of conventional intravenous treatments: two week cycle each, not given in the same period
# Description: The concepts of the invention will now be illustrated by the following Examples, which are intended to be purely exemplary and not limiting. The chemical debriding complex applied to the wound treated in example 1 was an aerosolized liquid composition comprising:
# as §1, §2, §3
# A human patient in normal health, suffered from a 16 month old chronic interstitial, encapsulated, alpha-hemolytic, streptococcal channelling ulceration located on their right ankle and tunnelled to the periosteum of the bone in their right ankle. […] Conventional intravenous treatments, including a two week cycle of penicillin and a two week cycle of amoxicillin, were unsuccessful. Note that the penicillin and the amoxicillin were not administered during the same two week period. Conventional per orum treatments, including a two week cycle of Keflex® and a two week cycle of Cipro®, were unsuccessful. Note that the Keflex and Cipro were not administered during the same two week period, nor were they administered during the same two week period as either of the penicillin or the amoxicillin.
# as §4
# [3] = tested on: six (6) month old chronic pressure-friction wound on both haunches; experiment: Example 3: canine pressure wound; assay type: in vivo, Borzoi; settings: duoderm post shaving; before treatment with the formulation
Molecule,outcome of conventional treatments at stimulating the healing of the wound [1],outcome of conventional per orum treatments [2],outcome of conventional intravenous treatments [2],"outcome of conventional topical treatments ([2]; topical, before treatment with the gel formulation)",outcome of conventional treatments [3]
O=C(O)c1cn(C2CC2)c2cc(N3CCNCC3)c(F)cc2c1=O [Cipro],unsuccessful,unsuccessful,,,
CC1=C(C(=O)O)N2C(=O)[C@@H](NC(=O)[C@H](N)c3ccccc3)[C@H]2SC1 [Keflex],unsuccessful,unsuccessful,,,
CC1(C)S[C@@H]2[C@H](NC(=O)[C@H](N)c3ccc(O)cc3)C(=O)N2[C@H]1C(=O)O [amoxicillin],,,unsuccessful,,
[O]=[Zn] [zinc oxide],unsuccessful,,,repeatedly unsuccessful,repeatedly unsuccessful
penicillin,,,unsuccessful,,
